This is an account of results in patent publication US5798382A, “2,3-dihydrobenzofuran derivatives, method for producing the same, and use thereof” (Asahi Kasei Kogyo Kabushiki Kaisha, priority 1994, dated 1998).

The structures appear in SMILES notation.

In one assay the target is adrenaline α1 receptor. Put plainly: Affinity for adrenaline α1 receptor: inhibition of 3H-Prazosin binding to rat cerebral cortex membrane fraction. As to conditions: for Ki: 3H-Prazosin, rat cerebral cortex membrane, 25° C. 30 min, tested as hydrochloride salt. Further details: species or system rat (male SD strain). How it is done:
A male SD strain rat (7-week old; Charles River) was decapitated, and brain was taken out therefrom quickly. Cerebral cortex of the rat was separated and extracted at […] under ice cooling. The extracted cerebral cortex was frozen at -80° C. for 24 hours or longer. This frozen system was gradually thawed under ice cooling and then, 50 mM Tris-HCl buffer (pH 7.4) was added to the brain under ice cooling to obtain a suspension. The resultant suspension was homogenized, and then subjected to centrifugation at 48,000 g for 15 minutes, to thereby obtain a precipitate. The precipitate thus obtained was washed twice and resuspended in the same Tris-HCl buffer as used above. […] The total volume amount of the reaction mixture was 1 ml. The resultant reaction mixture was subjected to suction filtration using a Whatman GF/C filter, and the filter was washed three times in 50 mM Tris-HCl buffer (pH 7.4, 4 ml), transferred to a vial and then, the radioactivity of Prazosin absorbed on the filter was determined using a liquid scintillation counter. […] On the other hand, substantially the same procedure as mentioned above was repeated, except that 100 nM (final concentration) Prazosin was added to the ^3 H-Prazosin and ascorbic acid. The radioactivity of ^3 H-Prazosin adsorbed on the filter was determined in the same manner as mentioned above. […] Further, substantially the same procedure as mentioned above was repeated, except that, instead of Prazosin, a test compound was used in a predetermined concentration. The radioactivity of ^3 H-Prazosin adsorbed on the filter was determined in the same manner as mentioned above. […] The binding inhibition ratios were plotted, taking the logarithmic value of the concentration of the test compound as the abscissa value, and the binding inhibition ratio as the ordinate value. Then, a curve was drawn by the non-linear least square method.

The subject of the next assay is Suncus murinus. Put plainly: Activities against emesis: acceleration-stimulus induced emesis in suncus. The class given is in vivo. As to conditions: stimulus (4 cm, 1 Hz) 30 minutes after, 4 suncus, hydrochloride salt, physiological saline 0.55. From the text:
The activities of individual compounds against emesis were examined using Suncus murinus. Suncus murinus is a small animal belonging to the Soricidae family. It has been known that suncus is likely to suffer from motion sickness and is susceptible to occurrence of emesis [see "Seitai-no-kagaku (Science of living body)", 42, 538 (1990)]. Suncus is likely to show symptoms like the symptoms of human motion sickness under the stimulus of simple acceleration, finally leading to the occurrence of emesis. It has been known that a drug, such as cisplatin, has an emesis-inducing activity.
In this test, test compounds were individually administered intraperitoneally to suncus. 30 minutes after the administration, acceleration-stimulus (amplitude: 4 cm; frequency; 1 Hz) was given to the suncus, and the suncus thus treated was observed as to whether emesis occurred or not.
Each of the compounds (1) used in the above tests was tested in the form of a hydrochloride salt thereof, and represented in Table 3 by the compound number used in Examples described below.

As to `O=C(NCCCCNCC1Cc2ccccc2O1)c1cccs1` (single isomer, unassigned; (-)) [Compound 111A, (-)-2-{N-[4-(2-thienylcarbonylamino)butyl]}aminomethyl-2,3-dihydrobenzo-[b]furan], the Ki – broadly, the equilibrium dissociation constant of an inhibitor or competing ligand from its target – at adrenaline α1 receptor was 160 nM.

Take `CN(CCCCNC(=O)c1cccs1)CC1Cc2ccccc2O1` (single isomer, unassigned; (-)) [Compound 116A, (-)-2-{N-methyl-N-[4-(2-thienylcarbonylamino)butyl]}aminomethyl-2,3-dihydrobenzo[b]furan]: the Ki on adrenaline α1 receptor was 530 nM.

Regarding `CCN(CCCCNC(=O)c1cccs1)CC1Cc2ccccc2O1` (single isomer, unassigned; (-)) [Compound 117A, (-)-2-{N-ethyl-N-[4-(2-thienylcarbonylamino)butyl]}aminomethyl-2,3-dihydrobenzo[b]furan], on adrenaline α1 receptor, the Ki amounted to 580 nM.

As for `O=C(NCCCCNCC1Cc2ccccc2O1)c1cccc2ccccc12` (centres unmarked) [Compound 101B, 2-{N-[4-(1-naphthoylamino)butyl]}aminomethyl-2,3-dihydrobenzo[b]furan], at adrenaline α1 receptor, the Ki amounted to 150 nM.

On to `O=C(NCCCCNCC1Cc2ccccc2O1)c1ccc2ccccc2c1` (centres unmarked) [Compound 102B, 2-{N-[4-(2-naphthoylamino)butyl]}aminomethyl-2,3-dihydrobenzo[b]furan], for which, at adrenaline α1 receptor, the Ki is 140 nM.

For the compound `O=C(NCCCCNCC1Cc2ccccc2O1)c1cccs1` (centres unmarked) [Compound 106B, 2-{N-[4-(2-thienylcarbonylamino)butyl]}aminomethyl-2,3-dihydrobenzo[b]furan], in the assay on Suncus murinus (1 mg/kg intraperitoneally), the “Time for occurrence of emesis” value worked out at 8.50 min. sec. The Ki on adrenaline α1 receptor came to 240 nM.

Take `O=C(NCCCCNCC1Cc2ccccc2O1)c1ccsc1` (centres unmarked) [Compound 107B, 2-{N-[4-(3-thienylcarbonylamino)butyl]}aminomethyl-2,3-dihydrobenzo[b]furan]: on adrenaline α1 receptor, the Ki amounted to 230 nM.

For the compound `O=C(NCCCCNCC1Cc2ccccc2O1)c1ccco1` (centres unmarked) [Compound 108B, 2-{N-[4-(2-furylcarbonylamino)butyl]}aminomethyl-2,3-dihydrobenzo[b]furan], the “Time for occurrence of emesis” value in the assay with Suncus murinus (1 mg/kg intraperitoneally) worked out at 4.56 min. sec.

For the compound `O=C(NCCNCC1Cc2ccccc2O1)c1cccc2ccccc12` (centres unmarked) [Compound 112B, 2-{N-[2-(1-naphthoylamino)ethyl]}aminomethyl-2,3-dihydrobenzo[b]furan], the “Time for occurrence of emesis” value with Suncus murinus (3 mg/kg intraperitoneally) worked out at 6.03 min. sec. Further, the Ki at adrenaline α1 receptor stood at 320 nM.

Regarding `O=C(NCCCNCC1Cc2ccccc2O1)c1cccc2ccccc12` (centres unmarked) [Compound 113B, 2-{N-[3-(1-naphthoylamino)propyl]}aminomethyl-2,3-dihydrobenzo[b]furan], in the assay with Suncus murinus (1 mg/kg intraperitoneally), the “Time for occurrence of emesis” value stood at 7.44 min. sec. In addition, the Ki at adrenaline α1 receptor worked out at 95 nM.

For the compound `O=S(=O)(NCCCCNCC1Cc2ccccc2O1)c1cccc2ccccc12` (centres unmarked) [Compound 114B, 2-{N-[4-(1-naphthylsulfonylamino)butyl]}aminomethyl-2,3-dihydrobenzo[b]furan], in the assay with Suncus murinus (1 mg/kg intraperitoneally), the “Time for occurrence of emesis” value worked out at 3.50 min. sec. The Ki at adrenaline α1 receptor worked out at 96 nM.

For `O=S(=O)(NCCCCNCC1Cc2ccccc2O1)c1ccc2ccccc2c1` (centres unmarked) [Compound 115B, 2-{N-[4-(2-naphthylsulfonylamino)butyl]}aminomethyl-2,3-dihydrobenzo[b]furan], the “Time for occurrence of emesis” value with Suncus murinus (1 mg/kg intraperitoneally) is 5.56 min. sec.

On to `COc1cc2nc(N3CCN(C(=O)c4ccco4)CC3)nc(N)c2cc1OC` [^3 H-Prazosin, reference compound], for which the Kd (usually the equilibrium constant for the complex coming apart) at adrenaline α1 receptor (radioactive ligand, used in Ki calculation) is 0.133 nM.
